Active and inactive are the calls of the source. No cut-off for these calls is given here.
tested on: MCF7; test: Antiproliferative activity against human MCF7 cells assessed as cell growth at 10 uM incubated for 72 hrs by SRB assay relative to control; type: functional; settings: read-out: Activity

Compound | growth at 10 µM [%]
Cc1ccc(S(=O)(=O)Nc2ccc(-c3ccc4c(c3)NC(=O)/C4=C\c3ccc[nH]3)cc2)cc1 | 3.35
Cc1[nH]c(/C=C2\C(=O)Nc3cc(-c4ccc(NS(=O)(=O)c5ccc(F)c(Cl)c5)cc4)ccc32)c(C)c1NS(C)(=O)=O | 4.18
CCN(CC)CCNC(=O)c1c(C)[nH]c(/C=C2\C(=O)Nc3cc(-c4ccc(NS(=O)(=O)c5ccc(F)c(Cl)c5)cc4)ccc32)c1C | -85.2
O=C1Nc2cc(-c3ccc(NS(=O)(=O)c4cccc(Br)c4)cc3)ccc2/C1=C/c1ccc[nH]1 | -18.4
O=C1Nc2cc(-c3ccc(NS(=O)(=O)c4ccc([N+](=O)[O-])cc4)cc3)ccc2/C1=C/c1ccc[nH]1 | -23.6
O=C1Nc2cc(-c3ccc(NS(=O)(=O)c4ccc(-c5ccccc5)cc4)cc3)ccc2/C1=C/c1ccc[nH]1 | -25.2
O=C1Nc2cc(-c3ccc(NS(=O)(=O)c4cccc(Cl)c4)cc3)ccc2/C1=C/c1ccc[nH]1 | -6.08

tested on: MCF7; test: Growth inhibition of human MCF7 cells incubated for 72 hrs by SRB assay; type: functional; settings: not given

Compound | GI50 [µM]
O=C1Nc2cc(-c3ccc(NS(=O)(=O)c4cccc(Br)c4)cc3)ccc2/C1=C/c1ccc[nH]1 | 0.0302
O=C1Nc2cc(-c3ccc(NS(=O)(=O)c4ccc([N+](=O)[O-])cc4)cc3)ccc2/C1=C/c1ccc[nH]1 | 1.73
O=C1Nc2cc(-c3ccc(NS(=O)(=O)c4ccc(-c5ccccc5)cc4)cc3)ccc2/C1=C/c1ccc[nH]1 | 0.0746

tested on: MDA-MB-468; test: Antiproliferative activity against human MDA-MB-468 cells assessed as cell growth at 10 uM incubated for 72 hrs by SRB assay relative to control; type: functional; settings: read-out: Activity

Compound | growth at 10 µM [%]
Cc1ccc(S(=O)(=O)Nc2ccc(-c3ccc4c(c3)NC(=O)/C4=C\c3ccc[nH]3)cc2)cc1 | -25.8
Cc1[nH]c(/C=C2\C(=O)Nc3cc(-c4ccc(NS(=O)(=O)c5ccc(F)c(Cl)c5)cc4)ccc32)c(C)c1NS(C)(=O)=O | 8.19
CCN(CC)CCNC(=O)c1c(C)[nH]c(/C=C2\C(=O)Nc3cc(-c4ccc(NS(=O)(=O)c5ccc(F)c(Cl)c5)cc4)ccc32)c1C | -90.5
O=C1Nc2cc(-c3ccc(NS(=O)(=O)c4cccc(Br)c4)cc3)ccc2/C1=C/c1ccc[nH]1 | -44
O=C1Nc2cc(-c3ccc(NS(=O)(=O)c4ccc([N+](=O)[O-])cc4)cc3)ccc2/C1=C/c1ccc[nH]1 | -29.6
O=C1Nc2cc(-c3ccc(NS(=O)(=O)c4ccc(-c5ccccc5)cc4)cc3)ccc2/C1=C/c1ccc[nH]1 | -52.5
O=C1Nc2cc(-c3ccc(NS(=O)(=O)c4cccc(Cl)c4)cc3)ccc2/C1=C/c1ccc[nH]1 | -29.3

tested on: MDA-MB-468; test: Growth inhibition of human MDA-MB-468 cells incubated for 72 hrs by SRB assay; type: functional; settings: not given

Compound | GI50 [µM]
O=C1Nc2cc(-c3ccc(NS(=O)(=O)c4cccc(Br)c4)cc3)ccc2/C1=C/c1ccc[nH]1 | 0.0286
O=C1Nc2cc(-c3ccc(NS(=O)(=O)c4ccc([N+](=O)[O-])cc4)cc3)ccc2/C1=C/c1ccc[nH]1 | 0.778
O=C1Nc2cc(-c3ccc(NS(=O)(=O)c4ccc(-c5ccccc5)cc4)cc3)ccc2/C1=C/c1ccc[nH]1 | 0.0402

tested on: T47D; test: Antiproliferative activity against human T47D cells assessed as cell growth at 10 uM incubated for 72 hrs by SRB assay relative to control; type: functional; settings: read-out: Activity

Compound | growth at 10 µM [%]
Cc1ccc(S(=O)(=O)Nc2ccc(-c3ccc4c(c3)NC(=O)/C4=C\c3ccc[nH]3)cc2)cc1 | 18.8
Cc1[nH]c(/C=C2\C(=O)Nc3cc(-c4ccc(NS(=O)(=O)c5ccc(F)c(Cl)c5)cc4)ccc32)c(C)c1NS(C)(=O)=O | 17.9
CCN(CC)CCNC(=O)c1c(C)[nH]c(/C=C2\C(=O)Nc3cc(-c4ccc(NS(=O)(=O)c5ccc(F)c(Cl)c5)cc4)ccc32)c1C | -49.1
O=C1Nc2cc(-c3ccc(NS(=O)(=O)c4cccc(Br)c4)cc3)ccc2/C1=C/c1ccc[nH]1 | 15.6
O=C1Nc2cc(-c3ccc(NS(=O)(=O)c4ccc([N+](=O)[O-])cc4)cc3)ccc2/C1=C/c1ccc[nH]1 | 15.9
O=C1Nc2cc(-c3ccc(NS(=O)(=O)c4ccc(-c5ccccc5)cc4)cc3)ccc2/C1=C/c1ccc[nH]1 | 3.17
O=C1Nc2cc(-c3ccc(NS(=O)(=O)c4cccc(Cl)c4)cc3)ccc2/C1=C/c1ccc[nH]1 | 12.1

tested on: T47D; test: Growth inhibition of human T47D cells incubated for 72 hrs by SRB assay; type: functional; settings: not given

Compound | GI50 [µM]
O=C1Nc2cc(-c3ccc(NS(=O)(=O)c4cccc(Br)c4)cc3)ccc2/C1=C/c1ccc[nH]1 | 0.0417
O=C1Nc2cc(-c3ccc(NS(=O)(=O)c4ccc([N+](=O)[O-])cc4)cc3)ccc2/C1=C/c1ccc[nH]1 | 4.77
O=C1Nc2cc(-c3ccc(NS(=O)(=O)c4ccc(-c5ccccc5)cc4)cc3)ccc2/C1=C/c1ccc[nH]1 | 0.136

target: Aurora kinase B (Homo sapiens, UniProt Q96GD4); test: Inhibition of Aurora B (unknown origin) at 100 nM by Z-LYTE assay relative to control; settings: not given
Sequence (Q96GD4 whole entry): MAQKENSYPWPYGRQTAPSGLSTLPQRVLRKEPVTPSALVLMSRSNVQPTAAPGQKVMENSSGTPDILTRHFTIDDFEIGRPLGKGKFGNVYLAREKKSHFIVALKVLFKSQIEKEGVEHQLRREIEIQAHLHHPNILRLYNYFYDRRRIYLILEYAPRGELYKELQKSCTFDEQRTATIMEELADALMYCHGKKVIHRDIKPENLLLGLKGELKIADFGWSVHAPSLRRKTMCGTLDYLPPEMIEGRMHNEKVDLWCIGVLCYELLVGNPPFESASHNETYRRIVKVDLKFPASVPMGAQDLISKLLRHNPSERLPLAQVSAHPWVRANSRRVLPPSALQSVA

Compound | inhibition [%]
Cc1ccc(S(=O)(=O)Nc2ccc(-c3ccc4c(c3)NC(=O)/C4=C\c3ccc[nH]3)cc2)cc1 | 23
Cc1[nH]c(/C=C2\C(=O)Nc3cc(-c4ccc(NS(=O)(=O)c5ccc(F)c(Cl)c5)cc4)ccc32)c(C)c1NS(C)(=O)=O | 53
CCN(CC)CCNC(=O)c1c(C)[nH]c(/C=C2\C(=O)Nc3cc(-c4ccc(NS(=O)(=O)c5ccc(F)c(Cl)c5)cc4)ccc32)c1C | 90
O=C1Nc2cc(-c3ccc(NS(=O)(=O)c4cccc(Br)c4)cc3)ccc2/C1=C/c1ccc[nH]1 | 38
O=C1Nc2cc(-c3ccc(NS(=O)(=O)c4ccc([N+](=O)[O-])cc4)cc3)ccc2/C1=C/c1ccc[nH]1 | 49
O=C1Nc2cc(-c3ccc(NS(=O)(=O)c4ccc(-c5ccccc5)cc4)cc3)ccc2/C1=C/c1ccc[nH]1 | 20
O=C1Nc2cc(-c3ccc(NS(=O)(=O)c4cccc(Cl)c4)cc3)ccc2/C1=C/c1ccc[nH]1 | 43

tested on: MCF7; test: Inhibition of mitochondrial respiration in human MCF7 cells assessed as reduction in oxygen consumption rate at 20 uM incubated for 15 mins in presence of complex I; type: functional, cell-based; settings: not given

Compound | inhibition
CCN(CC)CCNC(=O)c1c(C)[nH]c(/C=C2\C(=O)Nc3cc(-c4ccc(NS(=O)(=O)c5ccc(F)c(Cl)c5)cc4)ccc32)c1C | Active

tested on: MCF7; test: Inhibition of mitochondrial respiration in human MCF7 cells assessed as reduction in oxygen consumption rate at 20 uM incubated for 15 mins in presence of complex II; type: functional, cell-based; settings: not given

Compound | inhibition
CCN(CC)CCNC(=O)c1c(C)[nH]c(/C=C2\C(=O)Nc3cc(-c4ccc(NS(=O)(=O)c5ccc(F)c(Cl)c5)cc4)ccc32)c1C | Active

tested on: MCF7; test: Inhibition of mitochondrial respiration in human MCF7 cells assessed as reduction in oxygen consumption rate at 20 uM incubated for 15 mins in presence of complex IV; type: functional, cell-based; settings: not given

Compound | inhibition
CCN(CC)CCNC(=O)c1c(C)[nH]c(/C=C2\C(=O)Nc3cc(-c4ccc(NS(=O)(=O)c5ccc(F)c(Cl)c5)cc4)ccc32)c1C | inactive

tested on: MCF7; test: Inhibition of mitochondrial respiration in human MCF7 cells assessed as reduction in oxygen consumption rate at 20 uM incubated for 15 mins; type: functional, cell-based; settings: not given

Compound | inhibition
CCN(CC)CCNC(=O)c1c(C)[nH]c(/C=C2\C(=O)Nc3cc(-c4ccc(NS(=O)(=O)c5ccc(F)c(Cl)c5)cc4)ccc32)c1C | Active

tested on: MCF7; test: Inhibition of mitochondrial induced ROS production in human MCF7 cells assessed as reduction in H2O2 production rate at 20 uM incubated for 15 mins in presence of complex II by Amplex ultra red and horseradish peroxidase based fluorescence assay; type: functional, cell-based; settings: not given

Compound | inhibition
CCN(CC)CCNC(=O)c1c(C)[nH]c(/C=C2\C(=O)Nc3cc(-c4ccc(NS(=O)(=O)c5ccc(F)c(Cl)c5)cc4)ccc32)c1C | Active

tested on: MCF7; test: Induction of cell cycle arrest in human MCF7 cells assessed as accumulation of cells at G0/G1 phase at 5 to 7 uM measured after 24 hrs by PI staining based flow cytometry analysis; type: functional; settings: dose 5-7 µM

Compound | Activity
CCN(CC)CCNC(=O)c1c(C)[nH]c(/C=C2\C(=O)Nc3cc(-c4ccc(NS(=O)(=O)c5ccc(F)c(Cl)c5)cc4)ccc32)c1C | Active

tested on: H9c2; test: Cytotoxicity against rat H9c2 cells at upto 100 uM measured after 72 hrs by SRB assay; type: toxicity, cell-based; settings: h9c2, 72 h

Compound | Activity
CCN(CC)CCNC(=O)c1c(C)[nH]c(/C=C2\C(=O)Nc3cc(-c4ccc(NS(=O)(=O)c5ccc(F)c(Cl)c5)cc4)ccc32)c1C | Non-Toxic

tested on: BNL; test: Cytotoxicity against mouse BNL cells at upto 100 uM measured after 72 hrs by SRB assay; type: toxicity, cell-based; settings: not given

Compound | Activity
CCN(CC)CCNC(=O)c1c(C)[nH]c(/C=C2\C(=O)Nc3cc(-c4ccc(NS(=O)(=O)c5ccc(F)c(Cl)c5)cc4)ccc32)c1C | Non-Toxic
